Source: patent US20090136470A1, “REGULATORY T CELLS AND METHODS OF MAKING AND USING SAME” (priority 2007, published 2009)

Legend:
[1] = system: CD4^+CD25^− spleen T cells; test: Th-17 differentiation of CD4 T cells stimulated with dendritic cells or spleen APCs plus TGF-β and IL-6 (intracellular IL-17 staining, IL-17 ELISA); assay type: cell-based, mouse
Description: For CD4^+CD25^− T cell isolation, spleens were removed, teased into cell-single suspensions and filtered through a 70 μm cell strainer (Fisher Scientific, USA). CD4^+CD25^−T cells were isolated by negative selection after incubation with a mix of specific biotin-conjugated mAbs (anti-CD8, CD11b, CD11ε, CD25, CD45R (B220), NK1.1, and TER119) at 1/200 dilution, and anti-biotin magnetic microbeads (25-40 μl per spleen) (Miltenyi Biotec, USA).
For dendritic cells isolation, spleen and MLN were chopped and digested by collagenase type D (Roche, USA) for 30 min at room temperature. Digested tissues were treated with 5 mM of EDTA for additional 5 min and mashed through a 70 μm cell strainer. Subsequently, CD11c^+ cells were enriched by positive selection using anti-CD11c microbeads according to the manufacturer's protocol (Miltenyi Biotec, USA). Enriched populations were stained with CD45-APC, CD 11c-PE, I-A^b-FITC and TCR β and sorted for TCRβ^−CD45^+CD11c^+I-Ab^+ by flow cytometry using a FACS-DIVA cell sorter (USA).
(§1) The culture medium used for dendritic cell-T cell cultures was Iscove's modified Dulbecco medium (IMDM) (Gibco, USA) supplemented with 10% heat-inactivated FCS, 2 mM L-glutamine, 100 U/ml penicillin, 100 μg/ml streptomycin, and 5 mM β-mercaptoethanol (all Sigma, USA). […] For dendritic cell-T cell cultures, 2×10^4 dendritic cells and 1×10^5 T cells were cultured in a volume of 200 μl (96-well plates). For irradiated APC-T cell cultures, 5×10^5 APCs and 1×10^5 T cells were cultured in a volume of 200 μl in 96-well plates (2×10^6 APCs and 0.5×10^6 T cells per well in 48-well plates). […] For the study shown in FIG. 4A, after sorting of naive CD4^+ cells (CD25^−CD44^lowCD62L^+), cells were washed twice in PBS+0.1% BSA, counted and labeled with 2 μM of CFSE (Carboxyfluorescein diacetate, succinimidyl ester) (Molecular Probes, USA) at a concentration of 5−10×10^6 cells per ml in PBS-0.1% BSA.
To block non-specific staining, the 2.4G2 anti-CD16/32 antibody was added.

[2] = system: Polyclonal CD4^+CD25^− spleen T cells; test: APC-free Th-17 generation (anti-CD3/CD28 beads, IL-17 cond.: TGF-β, IL-6, IL-1β, TNF-α); assay type: cell-based, mouse
Description: as §1
To block non-specific staining, the 2.4G2 anti-CD16/32 antibody was added. […] For intracellular cytokine staining, cells obtained from in vitro cultures or isolated IELs were incubated for 4-5 hours with 50 ng/ml PMA, 750 ng/ml Ionomycin (both Sigma, USA) and 10 μg/ml Brefeldin A (Invitrogen, USA) in a tissue culture incubator at 37° C.

RORγt = RORγt mRNA by real-time PCR in CD4 T cells under Th-17 culture conditions; assay type: cell-based, mouse; details: α-CD3ε and α-CD28, IL-17 inducing cytokines
From the text: For analysis of RORγ-T mRNA expression, naïve CD4^+T cells were purified essentially as described by Ivanov et al. [Ivanov, II et al., Cell 126, 1121 (2006)]. In brief, CD4+ T cells were purified from spleens of C57BL/6 mice using anti-CD4 magnetic microbeads (Miltenyi Biotec) and MACS columns. CD4^+T cells were stained with anti-CD25-PE, anti-CD4-PECy5, anti-CD62L-FITC, and anti-CD44-APC. The CD4^+CD25^− CD44^lowCD62L^+ T cells population was sorted by flow cytometry using a FACS-DIVA cell sorter (>99% purity). Some studies were also performed using CD4^+CD45RB^high T cell population, sorted as described above.
At different time-points, cells were harvested, washed with sterile PBS and resuspended in TRIZol (Invitrogen, USA). Samples were then frozen and kept at −80° C. for later utilization. For RNA isolation, the whole tissue was homogenized and RNA was separated from DNA and proteins by precipitation with chloroform and extraction with isopropanol. The cDNA was synthesized from the total RNA using the Superscript II system (Invitrogen, USA) following the instructions provided by the manufacturer. […] Data were collected and analyzed on an iCycler Bio-Rad (Hercules, USA).

[3] = system: CD8^+T cells from OT-I TCR transgenic mice
Description: as §1
(§2) For Foxp3 staining, no stimulation with PMA/Ionomycin was performed, with the exceptions of FIGS. 8B and 9A.

[4] = system: naïve CD4^+T cells from B7.1/2^−/− IL-2^+/+ or B7.1/2^−/− IL-2^−/− mice; test: RA-mediated effects on T cell differentiation without IL-2 (anti-IL-2 or IL-2−/− T cells) or with exogenous IL-2; assay type: cell-based, mouse
Description: as §1, §2

RAR = details: cited from earlier work
CD8^+ spleen T cells = test: IL-17^+ cell generation from CD8^+ T cells activated with TGF-β and IL-6

In the case of `CC1=C(/C=C/C(C)=C/C=C/C(C)=C/C(=O)O)C(C)(C)CCC1` [RA, All-trans retinoic acid], the “antagonistic effect on IL-6 (Foxp3 versus IL-17)” value ([1]; TGF-β 5 ng/ml, varied concentrations of IL-6 and RA) is reported as “dose dependent”, the “Foxp3 / Th-17 differentiation of CD4 T cells under conditions that promote Th-17 differentiation” value ([1]; TNF-α, IL-1-β, TGF-β and IL-6 plus RA) is reported as “converted to Foxp3^+ cells with a decrease in Th-17 differentiation” and the “Th-17 differentiation by spleen dendritic cells” value ([1]; added to cultures with TGF-β and IL-6, 100 nM) is reported as “inhibited the Th-17 differentiation by spleen dendritic cells”. For the same compound, the “generation of IL-17^+ T cells under APC-free conditions” value [2] was “also inhibited the generation of IL-17^+T cells”, the “RORγt mRNA expression” value (RORγt) was “greatly reduced its expression” and the “CD103 expression on CD8 cells” value ([3]; TGF-β and RA) was “synergized to upregulate CD103 expression”. The “CD25 expression of CD8 T cells upon in vitro activation” value ([3]; in the presence of TGF-β and RA) was “down-regulate CD25 expression”, the “requirement for exogenously added IL-2” value [4] was “did not require exogenously added IL-2” and the “CD103 phenotype of the Foxp3^+Tregs generated” value ([4]; TGF-β-dependent Foxp3 differentiation) was “mostly CD103^+Tregs”. The “dependence of Foxp3^+ enhancing and Th-17 inhibitory effects on IL-2” value ([4]; anti-IL-2 (20 μg/ml) or IL-2−/− T cells) was “for the most part dependent on IL-2”, the “IL-17 cytokine secretion (ELISA)” value ([4]; culture supernatants) was “measurably decreased” and the “binding to RAR-RAR homodimers and RAR-RXR heterodimers” value (RAR) was “can bind”. For the same compound, the “generation of IL-17^+ T cells from cytotoxic CD8^+ T lymphocytes” value (CD8^+ spleen T cells; WT or OT-I TCR^+ CD8^+ T cells, TGF-β and IL-6) was “again able to inhibit this” and the “Foxp3 / Th-17 differentiation of CD8 T cells under conditions that promote Th-17 differentiation” value (CD8^+ spleen T cells; cultured with RA) was “converted to Foxp3^+ cells with a decrease in Th-17 differentiation”.
